Converted amounts (≈) assume the structure as drawn.
Tested on: Burkholderia cenocepacia BC240 (Cystic fibrosis isolate, MDR)
Experiment: MIC assay BC240
Format: cell-based

SMILES: CN(C)[C@@H]1C(O)=C(C(N)=O)C(=O)[C@@]2(O)C(O)=C3C(=O)c4c(O)cccc4C[C@H]3C[C@@H]12 [Sancycline, sancycline]
- MIC BC240 (Table 5): 4 µg/mL (≈ 9.65 µM)
- MIC BC240 (Table 6): 4 µg/mL (≈ 9.65 µM)
- MIC BC240 (Table 7): 4 µg/mL (≈ 9.65 µM)
- MIC BC240 (control compounds, numeric): 4 µg/mL (≈ 9.65 µM)

SMILES: CN(C)c1cc(NC(=O)CNC(C)(C)C)c(O)c2c1C[C@H]1C[C@H]3[C@H](N(C)C)C(O)=C(C(N)=O)C(=O)[C@@]3(O)C(O)=C1C2=O [Tigecycline, tigecycline]
- MIC BC240 (Table 5): 16 µg/mL (≈ 27.3 µM)
- MIC BC240 (Table 6): 16 µg/mL (≈ 27.3 µM)
- MIC BC240 (Table 7): 16 µg/mL (≈ 27.3 µM)
- MIC BC240 (control compounds, numeric): 16 µg/mL (≈ 27.3 µM)
